Measurements: patent US6436874B1, “Synergistic herbicidal agents based on leaf herbicides containing phosphorus, imidazolinones and hormone weed killers” (priority 1998, dated 2002)
Like-named read-outs stand apart in the source and are kept apart here.

Experiments:
Type in all cases: in vivo
[1] = tested on: Axonopus compressus; assay: Field trial, herbicidal activity against Axonopus compressus in rubber tree plantation; conditions: for inhibition at 50 g/ha: Axonopus compressus, No. 3, dose 50 g of AS/ha; for Activity (%), w. after appl.: No. 16, dose 40 g of AS/ha
Description: (§1) In an oil palm plantation, the economically important tropical weed Hedyotis verticillata was grown on plots of the dimensions 2×5 m under natural outdoor conditions and treated with the herbicides A1.2, B1 and C1 or their mixtures in a tank mix under standard conditions using a plot sprayer, at a water application rate of 450 liters of water per hectare (over-the-top application to the weeds; plant density initially more than 95% ground coverage). At intervals of 1, 2, 3, 4, 5, 6, 7 and 8 weeks after the application, the herbicidal efficacy of the active compounds or active compound mixtures was evaluated visually on the basis of the treated plots, in comparison with untreated control plots. The damage to and development of all above-ground parts of the plants were recorded. Evaluation was carried out using a percentage scale (100% effect=all plants killed; 50% effect=50% of the plants and the green parts of the plants killed; 0% effect=no noticeable effect=like control plot). The evaluation values of in each case 4 plots were averaged.
In a rubber tree plantation, plots with the tropical weed Axonopus compressus were grown under natural outdoor conditions (plot dimensions 2×5 m). The herbicides or their mixtures in a tank mix were applied under standard conditions using a plot spayer at a water application rate of 450 liters of water per hectare (over-the-top application). At intervals of 4, 7, 13, 17 and 21 weeks after the application, the herbicidal efficacy of the active compounds or active compound mixtures was evaluated visually on the basis of the treated plots, in comparison with untreated control plots. The damage to and development of all above-ground parts of the plants were recorded. Evaluation was carried out as described in Example 1.

[2] = tested on: Asystasia intrusa; assay: Field trial, herbicidal activity against Asystasia intrusa in rubber tree plantation; conditions: for inhibition at 50 g/ha: Asystasia intrusa, No. 3, dose 50 g of AS/ha; for Activity (%), w. after appl.: No. 16, dose 40 g of AS/ha
Description: as §1
In a rubber tree plantation, plots with the tropical weed Asystasia intrusa were grown under natural outdoor conditions (dimensions of the plots 2 x 5 m). The herbicides or their mixtures in a tank mix were applied under standard conditions (over-the-top application using a plot sprayer, water application rate 450 l/ha). In intervals of 4, 7, 13, 17 and 21 weeks after the application, the herbicidal efficacy of the active compounds or their mixtures was evaluated visually on the basis of the treated plots, in comparison with untreated control plots. The damage to and the development of all above-ground parts of the plants were recorded. Evaluation was carried out as described in Example 1.

[3] = tested on: Hedyotis verticillata; assay: Field trial, herbicidal activity against Hedyotis verticillata in oil palm plantation; conditions: for inhibition at 50 g/ha: Scleromitrion verticillatum, No. 14, dose 50 g of AS/ha, read-out: Herbicidal activity (%), w. after appl.
Description: as §1

## CC(C)C1(C)N=C(c2ncccc2C(=O)O)NC1=O (centres unmarked) [B1, Imazapyr]
[1]; 4 w. after appl.
  inhibition at 50 g/ha: 35%
[1]; 7 w. after appl.
  inhibition at 50 g/ha: 35%
[1]; 13 w. after appl.
  inhibition at 50 g/ha: 45%
[1]; 17 w. after appl.
  inhibition at 50 g/ha: 45%
[1]; 21 w. after appl.
  inhibition at 50 g/ha: 50%
[2]; 4 w. after appl.
  inhibition at 50 g/ha: 45%
[2]; 7 w. after appl.
  inhibition at 50 g/ha: 40%
[2]; 13 w. after appl.
  inhibition at 50 g/ha: 40%
[2]; 17 w. after appl.
  inhibition at 50 g/ha: 47%
[2]; 21 w. after appl.
  inhibition at 50 g/ha: 53%
[3]; 1 w. after appl.
  inhibition at 50 g/ha: 8%
[3]; 2 w. after appl.
  inhibition at 50 g/ha: 5%
[3]; 3 w. after appl.
  inhibition at 50 g/ha: 5%
[3]; 4 w. after appl.
  inhibition at 50 g/ha: 5%
[3]; 5 w. after appl.
  inhibition at 50 g/ha: 10%
[3]; 6 w. after appl.
  inhibition at 50 g/ha: 13%
[3]; 7 w. after appl.
  inhibition at 50 g/ha: 15%
[3]; 8 w. after appl.
  inhibition at 50 g/ha: 15%

## O=C([O-])COc1ccc(Cl)cc1Cl.[Na+] [C1, 2,4-D-sodium salt]
[1]; 4 w. after appl.
  Activity (%), w. after appl.: 5%
[1]; 7 w. after appl.
  Activity (%), w. after appl.: 5%
[1]; 13 w. after appl.
  Activity (%), w. after appl.: 0%
[1]; 17 w. after appl.
  Activity (%), w. after appl.: 0%
[1]; 21 w. after appl.
  Activity (%), w. after appl.: 0%
[2]; 4 w. after appl.
  Activity (%), w. after appl.: 77%
[2]; 7 w. after appl.
  Activity (%), w. after appl.: 67%
[2]; 13 w. after appl.
  Activity (%), w. after appl.: 20%
[2]; 17 w. after appl.
  Activity (%), w. after appl.: 10%
[2]; 21 w. after appl.
  Activity (%), w. after appl.: 8%
[3]; No. 15, dose 40 g of AS/ha, 1 w. after appl.
  Herbicidal activity (%), w. after appl.: 6%
[3]; No. 15, dose 40 g of AS/ha, 2 w. after appl.
  Herbicidal activity (%), w. after appl.: 5%
[3]; No. 15, dose 40 g of AS/ha, 3 w. after appl.
  Herbicidal activity (%), w. after appl.: 5%
[3]; No. 15, dose 40 g of AS/ha, 4 w. after appl.
  Herbicidal activity (%), w. after appl.: 4%
[3]; No. 15, dose 40 g of AS/ha, 5 w. after appl.
  Herbicidal activity (%), w. after appl.: 0%
[3]; No. 15, dose 40 g of AS/ha, 6 w. after appl.
  Herbicidal activity (%), w. after appl.: 0%
[3]; No. 15, dose 40 g of AS/ha, 7 w. after appl.
  Herbicidal activity (%), w. after appl.: 0%
[3]; No. 15, dose 40 g of AS/ha, 8 w. after appl.
  Herbicidal activity (%), w. after appl.: 0%
[3]; No. 16, dose 20 g of AS/ha, 1 w. after appl.
  Herbicidal activity (%), w. after appl.: 6%
[3]; No. 16, dose 20 g of AS/ha, 2 w. after appl.
  Herbicidal activity (%), w. after appl.: 5%
[3]; No. 16, dose 20 g of AS/ha, 3 w. after appl.
  Herbicidal activity (%), w. after appl.: 5%
[3]; No. 16, dose 20 g of AS/ha, 4 w. after appl.
  Herbicidal activity (%), w. after appl.: 1%
[3]; No. 16, dose 20 g of AS/ha, 5 w. after appl.
  Herbicidal activity (%), w. after appl.: 0%
[3]; No. 16, dose 20 g of AS/ha, 6 w. after appl.
  Herbicidal activity (%), w. after appl.: 0%
[3]; No. 16, dose 20 g of AS/ha, 7 w. after appl.
  Herbicidal activity (%), w. after appl.: 0%
[3]; No. 16, dose 20 g of AS/ha, 8 w. after appl.
  Herbicidal activity (%), w. after appl.: 0%
